Data taken from US7790762B2, “Compounds and methods for thiol-containing compound efflux and cancer treatment” (National Jewish Health, priority 2002, dated 2010).
Marks after values point to notes of the source that are not given here.

Experiments:
A549 cells [1] = test: Intracellular GSH levels by HPLC-EC in A549 cells; format: cell-based, human
Protocol: (§1) Cell lines and culture conditions. Human lung epithelial cancer (A549), human leukemia HL-60 and human prostate (PC-3) tumor cells were purchased from ATCC (Manassas, Va.). A549 and PC-3 cells were grown in Ham's F12 medium (F12) and Kaighn's modification of Ham's F12 medium (F12K) with 2 mM L-glutamine (ATCC), respectively, supplemented with 10% fetal bovine serum (FBS) and 5% pen/strep (10,000 unit, Cellgro). HL-60 cells were grown in Iscove's modified Dulbecco's medium with 4 mM L-glutamine (ATCC) supplemented with 20% FBS and 5% pen/strep. Cell were grown in T-75 flask at 37° C. and 5% CO2 air atmosphere and in 24-well plates for GSH levels and LDH release measurements.
(§2) Intracellular levels of GSH. Intracellular GSH levels can be determined by HPLC-EC. Cultured cells from 24-well plates were washed once with 1 ml of PBS and then re-suspended in 0.5 ml of distilled water with 40 μM of digitonin (2 mM stock solution in DMSO) for 30 min at room temperature. Then, 50 μl of 10% meta-phosphoric acid were added (1% final concentration), the samples were sonicated for 2 min, centrifuged at 20,000 g for 10 min, and 0.2 ml of supernatant placed in vials for HPLC analysis. […] The flow rate was […]. The retention time for GSH in these conditions was 7.5 min. The HPLC instrument was from ESA, Inc. (Chelmsford, Mass.), equipped with an autosampler (model 540) and a Coul array detector (model 5600A). The potential applied was +0.75 V vs. H/Pd electrode, and the injection volume 5 μl.

HL-60 cells [2] = test: Intracellular GSH levels by HPLC-EC in HL-60 cells; format: cell-based, human; conditions: for activity at 75 µM / activity at 25 µM: Homo sapiens, read-out: Int. GSH % con.; for activity at 75 µM / Int. GSH % con. / activity at 25 µM: 24 hours treatment; for effect on intracellular GSH (words): HL-60 cells; for activity at 25 µM: HL-60, 25 μM
Protocol: as §1, §2

PC-3 cells [3] = test: Intracellular GSH levels by HPLC-EC in PC-3 cells; format: cell-based, human
Protocol: as §1, §2

A549 cells [4] = test: Cytotoxicity as LDH release in A549 cells; format: cell-based, human; conditions: A549, 75 μM, 48 hours treatment; for LDH release, % of control at 75 µM: Homo sapiens, read-out: LDH rel. % con.
Protocol: as §1
(§3) Assessment of cytotoxicity. In one exemplary method, membrane integrity of A549, HL-60 and PC-3 cells was used as an index of drug-induced cytotoxicity, and was assessed by monitoring the release of cytosolic lactate dehydrogenase (LDH). LDH activity was measured in the culture medium and cell lysates (50 mM HEPES, Triton X-100 0.5%, pH 7) using a plate reader format as previously described (41). Briefly, 5 μl of cell culture supernatant and lysates were incubated with 0.24 mM NADH in a Tris/NaCl pH 7.2 buffer in 96-well plates for 5 min at 25° C. The reaction was started by the addition of 9.8 mM pyruvate and the consumption of NADH followed at 340 nm for 5 min at 30° C. Percent LDH release was calculated by the following: (supernatant LDH/supernatant LDH+lysate LDH)×100.

HL-60 cells [5] = test: Cytotoxicity as LDH release in HL-60 cells; format: cell-based, human; conditions: 48 hours treatment; for LDH release, % of control at 50 µM / LDH rel. % con.: HL-60, 50 μM
Protocol: as §1, §3

PC-3 cells [6] = test: Cytotoxicity as LDH release in PC-3 cells; format: cell-based, human; conditions: PC-3, 50 μM, 48 hours treatment; for LDH release, % of control at 50 µM: Homo sapiens, read-out: LDH rel. % con.
Protocol: as §1, §3

epithelial cells = test: Effects of compounds on extracellular GSH transport (Table 3); format: cell-based
[7] = Homo sapiens, A549, 75 μM, 24 hours treatment, read-out: Int. GSH % con.
[8] = Homo sapiens, read-out: LDH rel. % con.
[9] = A549, 75 μM, 24 hours treatment
[10] = Homo sapiens, PC-3, 25 μM, 24 hours treatment, read-out: Int. GSH % con.
[11] = Epithelial cell, read-out: % Increase Over Control (extracellular GSH)

O=c1c(O)c(-c2ccc(O)cc2O)oc2cc(O)cc(O)c12 [Morin]
activity at 75 µM (A549 cells [1]; [7]): 72% | activity at 75 µM (HL-60 cells [2]; HL-60, 75 μM): 86% | activity at 50 µM (PC-3 cells [3]; Homo sapiens, PC-3, 50 μM, 24 hours treatment, read-out: Int. GSH % con.): 125% | effect on intracellular GSH (words) (PC-3 cells [3]; PC-3 cells, 50-75 μM): stimulated an increase in intracellular GSH | LDH release, % of control at 75 µM (A549 cells [4]): 112% | LDH release, % of control at 50 µM (HL-60 cells [5]; [8]): 97% | LDH release, % of control at 50 µM (PC-3 cells [6]): 80%

O=c1c(O)c(-c2cc(O)c(O)c(O)c2)oc2cc(O)cc(O)c12 [Myricetin]
Int. GSH % con. (A549 cells [1]; [9]): 55 % con. | Int. GSH % con. (HL-60 cells [2]; HL-60, 75 μM): 27 % con. | Int. GSH % con. (PC-3 cells [3]; PC-3, 50 μM, 24 hours treatment): 111 % con. | LDH rel. % con. (A549 cells [4]): 206 % con. | LDH rel. % con. (HL-60 cells [5]): 139 % con. | LDH rel. % con. (PC-3 cells [6]): 93 % con.

O=C1CC(c2ccc(O)cc2)Oc2cc(O)cc(O)c21 (stereo not shown) [Naringenin, 4′,5,7-trihydroxyflavanone]
activity at 25 µM (A549 cells [1]; Homo sapiens, A549, 25 μM, 24 hours treatment, read-out: Int. GSH % con.): 17% | activity at 75 µM (HL-60 cells [2]; HL-60, 75 μM): 73% | activity at 25 µM (PC-3 cells [3]; [10]): 83% | LDH release, % of control at 75 µM (A549 cells [4]): 130% | LDH release, % of control at 50 µM (HL-60 cells [5]; [8]): 95% | LDH release, % of control at 50 µM (PC-3 cells [6]): 107%

CCCOC(=O)c1cc(O)c(O)c(O)c1 [Propyl Gallate, 3,4,5-trihydroxy-benzoic acid propyl ester]
activation at 50 µM (epithelial cells; [11]): 136%

O=c1c(O)c(-c2ccc(O)c(O)c2)oc2cc(O)cc(O)c12 [Quercetin]
Intracellular GSH levels, % compared to control (A549 cells [1]; A549, 25 μM, 4 h): 51.0 ± 0.7% | Int. GSH % con. (A549 cells [1]; A549, 25 μM, 24 hours treatment): 36 % con. | Int. GSH % con. (HL-60 cells [2]; HL-60, 50 μM): 94 % con. | Int. GSH % con. (PC-3 cells [3]; PC-3, 25 μM, 24 hours treatment): 95 % con. | LDH rel. % con. (A549 cells [4]): 175 % con. | LDH rel. % con. (HL-60 cells [5]): 157 % con. | LDH rel. % con. (PC-3 cells [6]): 80 % con.

Oc1ccc(C=Cc2cc(O)cc(O)c2)cc1 [Resveratrol]
activity at 75 µM (A549 cells [1]; [7]): 64% | effect on intracellular GSH (words) (HL-60 cells [2]): found effective in HL-60 cells | activity at 25 µM (HL-60 cells [2]): 61% | activity at 25 µM (PC-3 cells [3]; [10]): 108% | LDH release, % of control at 75 µM (A549 cells [4]): 249% | LDH release, % of control at 50 µM (HL-60 cells [5]; [8]): 143% | LDH release, % of control at 50 µM (PC-3 cells [6]): 135%

C=C(C)[C@H]1Cc2c(ccc3c2O[C@@H]2COc4cc(OC)c(OC)cc4[C@@H]2C3=O)O1 [Rotenone, reference compound]
activity at 50 µM (A549 cells [1]; Homo sapiens, A549, 50 μM, 24 hours treatment, read-out: Int. GSH % con.): 53% | effect on intracellular GSH (words) (HL-60 cells [2]): relatively effective for depleting GSH | activity at 25 µM (HL-60 cells [2]): < 5% | activity at 25 µM (PC-3 cells [3]; [10]): 74% | LDH release, % of control at 75 µM (A549 cells [4]): 170% | LDH release, % of control at 25 µM (HL-60 cells [5]; Homo sapiens, HL-60, 25 μM, read-out: LDH rel. % con.): 421% | LDH release, % of control at 50 µM (PC-3 cells [6]): 180%

C[C@@H]1O[C@@H](OC[C@H]2O[C@@H](Oc3c(-c4ccc(O)c(O)c4)oc4cc(O)cc(O)c4c3=O)[C@H](O)[C@@H](O)[C@@H]2O)[C@H](O)[C@H](O)[C@H]1O [Rutin]
% Increase Over Control (extracellular GSH) (epithelial cells; 100 μM): 160 ^b % | Int. GSH % con. (A549 cells [1]; [9]): 86 % con. | Int. GSH % con. (HL-60 cells [2]; HL-60, 75 μM): 98 % con. | LDH rel. % con. (A549 cells [4]): 187 % con. | LDH rel. % con. (HL-60 cells [5]): 98 % con. | LDH rel. % con. (PC-3 cells [6]): 95 % con.

O=C(O)c1cc(/N=N/c2ccc(S(=O)(=O)Nc3ccccn3)cc2)ccc1O [Sulfasalazine, reference compound]
activation at 50 µM (epithelial cells; [11]): 211%

Nc1ccc(C(=O)O)c(O)c1 [p-Aminosalicylic Acid, 4-amino-2-hydroxybenzoic acid, reference compound]
activation at 100 µM (epithelial cells; Epithelial cell, 100 μM, read-out: % Increase Over Control (extracellular GSH)): 414%
